Patent publication US20060014673A1 (priority 1998, published 2006)
Like-named read-outs stand apart in the source and are kept apart here.

Assays:
[1] = test system: Primary cultures of neonatal rat cortex; assay type: cell-based
[2] = test system: Primary cultures of neonatal rat cortex; assay type: cell-based; remark: listed apart in the source

Molecule | effect on intracellular calcium [1] | effect on intracellular calcium [2] | potency in non-depolarized compared with depolarized cultures [2] | effect on intracellular calcium ([1]; depolarized conditions (aconitine), substance alone)
dendrotoxin | caused an increase in intracellular calcium | – | – | –
Nc1ccncc1 [4-AP, 4-aminopyridine] | – | significant effect | slightly less potent | induces an increase in intracellular calcium
